Source: ChEMBL document CHEMBL5316308, “BET-HDAC Dual Inhibitors for Combinational Treatment of Breast Cancer and Concurrent Candidiasis” (J Med Chem, 2023)
Calls of active or inactive are those of the source. The rule behind the calls is not given here.

Legend:
[1] = Metabolic stability in ICR mouse liver microsome assessed as clearance; assay type: ADME; details: liver microsomes, read-out: CLH
[2] = test system: Candida albicans; experiment: Synergistic antifungal activity against Candida albicans 0304103 infected in ICR mouse assessed as decrease in kidney fungal load at 10 to 20 mg/kg, ip for 5 consecutive days; assay type: functional, organism-based; details: dose 10-20 mg/kg, time 5.0 day
[3] = target: Histone deacetylase 3 (Homo sapiens, UniProt O15379); experiment: Inhibition of His-tagged recombinant human HDAC3 expressed in baculovirus infected insect cells using Ac-Leu-Gly-Lys(Ac)-AMC as substrate incubated for 30 mins by fluorescence based assay; parameters: species or system Insect cell
[4] = test system: Candida albicans; experiment: Synergistic antifungal activity against azole-resistant Candida albicans 0304103 assessed as fungal growth inhibition at 32 ug/ml measured upto 24 hrs in presence of 1 to 4 ug/ml FLC by absorbance based assay; assay type: functional, organism-based; details: dose 32.0 µg/ml
[5] = target: T1, Histone deacetylase 8 (Homo sapiens, UniProt Q9BY41); experiment: Inhibition of C-terminal His-tagged full-length recombinant human HDAC8 expressed in baculovirus infected Sf9 insect cells using Ac-Leu-Gly-Lys(Tfa)-AMC as substrate incubated for 30 mins by fluorescence based assay
T1 sequence (Q9BY41 whole entry): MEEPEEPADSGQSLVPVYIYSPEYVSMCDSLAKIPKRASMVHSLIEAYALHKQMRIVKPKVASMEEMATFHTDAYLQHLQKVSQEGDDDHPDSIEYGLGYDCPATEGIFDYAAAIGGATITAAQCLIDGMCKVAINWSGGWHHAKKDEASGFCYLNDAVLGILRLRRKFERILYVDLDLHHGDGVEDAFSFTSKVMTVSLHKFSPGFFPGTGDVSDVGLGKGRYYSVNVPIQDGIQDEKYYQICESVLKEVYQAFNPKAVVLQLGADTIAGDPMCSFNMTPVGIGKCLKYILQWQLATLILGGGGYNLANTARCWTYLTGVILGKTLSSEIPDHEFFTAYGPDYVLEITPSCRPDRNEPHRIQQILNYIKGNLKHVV

[6] = test system: MDA-MB-231; experiment: Induction of apoptosis in human MDA-MB-231 cells incubated for 48 hrs by Annexin V-FITC/PI staining based flow cytometry; assay type: functional, cell-based; details: dose 2.5-10 µM
[7] = target: Bromodomain testis-specific protein (Homo sapiens, UniProt Q58F21); experiment: Inhibition of recombinant BRDT BD1 (unknown origin) incubated for 120 mins by TR-FRET assay
[8] = target: Bromodomain-containing protein 4 (Homo sapiens, UniProt O60885); experiment: Inhibition of recombinant BRD4 (unknown origin) incubated for 120 mins by TR-FRET assay relative to control; parameters: concentration or dose not given beside the values

Chain of Histone deacetylase 3 (O15379 whole entry): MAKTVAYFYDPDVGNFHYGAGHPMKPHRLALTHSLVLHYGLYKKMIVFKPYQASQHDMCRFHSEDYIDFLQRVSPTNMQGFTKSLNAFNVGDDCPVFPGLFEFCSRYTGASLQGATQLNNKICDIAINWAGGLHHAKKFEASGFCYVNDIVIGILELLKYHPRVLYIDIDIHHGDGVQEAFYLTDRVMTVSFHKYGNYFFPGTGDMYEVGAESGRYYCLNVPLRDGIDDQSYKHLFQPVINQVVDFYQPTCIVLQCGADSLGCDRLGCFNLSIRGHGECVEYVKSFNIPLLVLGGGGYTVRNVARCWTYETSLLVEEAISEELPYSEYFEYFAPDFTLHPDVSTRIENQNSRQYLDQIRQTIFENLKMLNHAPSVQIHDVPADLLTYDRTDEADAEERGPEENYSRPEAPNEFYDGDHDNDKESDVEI

**Q.** Which CLint scaled [1] does the source give for `COc1cc2c(cc1-c1c(C)noc1C)[nH]c1nc(C)nc(NCCCCCCC(=O)NO)c12` here?
**A.** 285 mL/min/kg

**Q.** And the Activity [2]?
**A.** Active

**Q.** What about the IC50 [3] of the same compound?
**A.** 213 nM

**Q.** What about the Activity [4] of the same compound?
**A.** Active

**Q.** What about the IC50 [5] of the same compound?
**A.** 782 nM

**Q.** What about the Activity [6] of the same compound?
**A.** Dose-Dependent Effect

**Q.** And the IC50 [7]?
**A.** 1110 nM

**Q.** And the inhibition [8]?
**A.** 91.7%

**Q.** Which results are given for `COc1cc2c(cc1-c1c(C)noc1C)[nH]c1ncnc(NCCCCCCC(=O)NO)c12`?
**A.** CLint scaled [1]: 103 mL/min/kg; Activity [2]: Active; IC50 [3]: 161 nM; Activity [4]: Active; IC50 [5]: 784 nM; Activity [6]: Dose-Dependent Effect; IC50 [7]: 221 nM; inhibition [8]: 93.7%
